Source: patent publication US20170281611A1, “QUINOLINES AND THEIR USE FOR TREATING ENDOPLASMIC RETICULUM STRESS-CAUSED DISEASES” (EIGER BIOPHARMACEUTICALS, INC., priority 2014, published 2017)

How the values were obtained:
ob/ob mice = assay: Effect of a SERCA agonist on the level of blood glucose; format: in vivo, mouse; conditions: 10 or 50 mg/kg i.p. once a day for 5 days
Description: Fasting glucose was measured at baseline and 10 hours after the administration of the test compound. Glucose levels were measured in blood samples drawn from the tail vein using the OneTouch Ultra 2 Meter (LifeScan, Inc.).

[1] = molecular target: human nerepinephrine (NET) transporter (Homo sapiens, UniProt P23975); assay: Selectivity panel of 164 targets: NET; conditions: 10 μM in duplicate; one of only 4 hits among 164 targets
Sequence of human nerepinephrine (NET) transporter (P23975 whole entry): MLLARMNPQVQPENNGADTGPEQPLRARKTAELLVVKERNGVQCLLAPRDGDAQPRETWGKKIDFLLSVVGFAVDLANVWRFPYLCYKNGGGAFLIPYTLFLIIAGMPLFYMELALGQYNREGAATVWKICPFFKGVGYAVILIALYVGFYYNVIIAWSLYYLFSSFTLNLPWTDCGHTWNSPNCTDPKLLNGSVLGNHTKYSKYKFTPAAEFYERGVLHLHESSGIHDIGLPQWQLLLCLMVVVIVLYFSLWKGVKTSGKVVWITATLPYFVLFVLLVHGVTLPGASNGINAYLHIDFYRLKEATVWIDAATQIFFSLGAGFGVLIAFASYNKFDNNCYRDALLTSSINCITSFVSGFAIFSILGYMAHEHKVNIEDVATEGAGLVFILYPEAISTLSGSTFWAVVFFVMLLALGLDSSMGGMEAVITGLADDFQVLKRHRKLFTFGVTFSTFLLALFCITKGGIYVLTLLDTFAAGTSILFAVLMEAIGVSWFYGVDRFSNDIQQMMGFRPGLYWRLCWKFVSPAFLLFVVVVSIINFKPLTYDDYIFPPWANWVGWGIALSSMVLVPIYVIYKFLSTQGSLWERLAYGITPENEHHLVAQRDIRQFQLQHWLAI
From the text: The methods used here for each target were adapted from the scientific literature to maximize reliability and reproducibility.

[2] = test system: HeLa cells overexpressing BI-1; assay: Effect on [Ca2+]ER, ER cameleon in HeLa cells overexpressing BI-1; format: cell-based; conditions: HeLa cells overexpressing BI-1, treated 24 hrs
Description: To directly measure ER Ca^2+ content, a genetically encoded Ca^2+ indicator, ER cameleon, was used. HeLa cells were transfected with ER-cameleon encoding plasmid for 2 days before analysis. Cells were treated with a test compound for 24 hrs and imaged in Ca^2+-free HBSS upon addition of thapsigargin to deplete ER stores. Emission ratio imaging of the ER cameleon was accomplished using a 430/24 excitation filter, 450-nm dichroic mirror, and two emission filters (475/40 for CFP and 535/25 for YFP). The fluorescence ratio of YFP/CFP is a measure of relative ER Ca^2+ levels.

PERK, elF2α, CHOP = assay: Liver protein markers of ER stress (western blot); format: in vivo, mouse; conditions: liver of ob/ob mice, 50 mg/kg
Description: Proteins were analyzed by western blot and quantified. Bands were normalized to GAPDH and expressed as 100% of ob/ob+vehicle (ob). Liver tissues were homogenized with a bench-top homogenizer in an ice-cold tissue lysis buffer. The homogenized samples were centrifuged at 8,000×g for 20 min at 4° C. The lipid layer was removed and the supernatant was transferred into Eppendorf tubes. After centrifuging at 16,000×g for 60 min at 4° C., the supernatants were normalized to the same concentration and boiled at 100° C. in 1× Laemmli buffer for 5 min. The lysate was cooled to room temperature before loading for Western blot analysis. Protein lysate was resolved on SDS polyacrylamide gel and transferred onto PVDF membrane at a voltage of 100 V for 2 hrs at 4° C. The membrane was blocked in 10% blocking reagent and incubated overnight with a primary antibody in Tris-buffered saline solution/Tween (TBST)/10% blocking reagent at 4° C. After incubation, the membrane was washed three times in TBST for 20 min and incubated at room temperature with a secondary antibody in TBST/10% blocking reagent for 1 hr. The membrane was washed three times for 20 min and developed using a chemiluminescence assay system. To strip a membrane for another primary antibody, the membrane was agitated at 50° C. for 20 min in a box with stripping buffer (2% SDS and 100 mM 2-mercaptoethanol in TBS, pH 7.5). […]

PS1/APP mice = assay: Alzheimer's disease model, 2-photon Ca2+ imaging of CA1 pyramidal neurons in brain slices; format: in vivo, mouse; conditions: 10 mg/kg IP for 4 weeks, vs saline
From the text: PS1/APP mice (PS1M146V and APPSWE) (Howlett et al., Brain Res. 2004, 1017, 130-136) were used. Age-matched NTg controls were on the same background strain (C57bl6/J9).
Mice were deeply anesthetized with halothane and rapidly decapitated. The brains were extracted rapidly and 300 or 400 μm-thick transverse hippocampal slices were cut with a vibrating microtome into ice-cold oxygenated artificial cerebrospinal fluid (aCSF) with the following composition (in mM): 125 NaCl, 2.5 KCl, 1.25 KH2PO4, 1.2 MgSO4, 2 CaCl2, 10 dextrose, and 25 NaHCO3.
Ca^2+ imaging within individual neurons was performed in brain slice preparations using a custom-made video-rate multiphoton-imaging system based on an upright Olympus BX51 microscope frame. […] Emitted fluorescence light was detected by a wide-field photomultiplier (Electron Tubes) to derive a video signal that was captured and analyzed by Video Savant 5.0 software (IO Industries). […] For clarity, results are expressed as inverse ratios so that increases in [Ca^2+] correspond to increasing ratios. The % change is calculated as […], where F is the average resting fluorescence at baseline and ΔF is the decrease of fluorescence reflecting Ca release. Differences between drug- and saline-treated groups were assessed using two-way ANOVA and Scheffe post hoc analysis for significance (p<0.05). […]

[3] = test system: G6PAse, PEPCK, SCD1, DGAT2, FASn, SREBP1c, PPARα, PGC1α; assay: Liver expression of gluconeogenesis and lipogenesis genes (real-time PCR); format: in vivo, mouse; conditions: liver of ob/ob mice
Description: The expression of key genes involved in gluconeogenesis and lipogenesis was measured. RNA was isolated from liver samples of the ob/ob mice and mRNA expression of the indicated genes was quantified by Real-time PCR using iTaq Fast SYBR Green Supermix with ROX (Bio-Rad) in a 7500 Real-Time PCR systems (Applied Biosystems) using mouse specific primers. Gene expression is normalized to 18s. RNA was isolated using Trizol (Invitrogen). cDNA was generated using High Capacity cDNA Reverse Transcription kit (Applied Biosystems). Real-time PCR was performed with iTaq Fast SYBR Green Supermix with ROX (Bio-Rad) in 7500 Real-Time PCR systems (Applied Biosystems) using mouse specific primers. Gene expression was normalized to 18s. Isolated liver tissue was homogenized in RIPA buffer containing protease inhibitors and phosphatase inhibitors (Roche). Protein samples were matched for their protein concentrations and 30 micrograms of each sample were applied to SDS-PASE and transferred onto nitrocellulose membrane. Membranes were then incubated with the corresponding phosphor or total primary antibodies specific for the desired proteins followed by incubation with appropriate secondary antibodies conjugated to horseradish peroxidase (Pierce) and signal intensities were visualized by Chemiluminescence (Pierce). Films from at least four independent experiments were scanned and densities of the immunoreactive bands were evaluated using NIH Image software. GAPDH (Santa Cruz Biotechnology) was used as a loading control.

## Cc1ccc2cccc(NC(=O)c3ccc(OC(C)C)cc3)c2n1 [Compound A12, 4-Isopropoxy-N-(2-methylquinolin-8-yl)benzamide]
ob/ob mice
  fasting blood glucose: significantly lowered blood glucose as early as day 2
  maintenance of lower glucose level after last injection: maintained a lower glucose level, to a level identical to lean mice, for over a week after the last injection
[1]
  response against human nerepinephrine (NET) transporter: significant responses
[2]
  [Ca2+]ER: significantly restored
PERK, elF2α, CHOP
  expression of CHOP: significantly reduced
  phosphorylation of PERK and elF2α: significantly reduced
PS1/APP mice
  ER Ca2+ signaling (RyR-Ca2+ response to caffeine): restores ER Ca^2+ signaling
[3]
  expression of PPARα and its target PGC1α: increased
  mRNA expression of G6PAse and PEPCK: significantly reduced
  mRNA expression of lipogenic genes (SCD1, DGAT2, FASn, SREBP1c): significantly reduced
